Measurements taken from patent US11369591B2, “Drug delivery from hydrogels” (Incept, LLC, priority 2015, dated 2022).
≈ marks a conversion by molar mass, not a printed value. Structures can show the parent of a compound that is named as a salt.

Tests used:
[1] = experimental water solubility when available in the scientific literature; cited from earlier work
[2] = Steroid solubility studies in dissolution media (PBS, pH 6.3), Example 10; type: physicochemical; details: for solubility at 68 h: pH 6.3, aqueous buffer, thermodynamic from solid
Method: Solubility of the steroid candidates was assessed in dissolution media (PBS, pH 6.3) at ambient temperatures for 68 hours. UV detection of soluble steroid was determined relative to a standard curve.

[3] = tested on: vitreous of a Male New Zealand white rabbit; assay: Intravitreal injection of micronized axitinib suspension, histology after 1 month; type: in vivo; details: for Inflammation around the injected material / Inflammation within the vitreous Chamber: semi-quantitative scale 0-5
Method: (§1) 50 μL of the 2% axitinib suspension was then drawn into a 100 μL luer lock Hamilton syringe using a 21G 1.5″ needle. The needle was swapped for a fresh 27G ½″ TW needle (Nipro). The 50 μL suspension was then injected at the 6 o'clock position within the vitreous of a Male New Zealand white rabbit. After 1 month, eyes were explanted and prepared for histology.
(§2) Two eyes were fixed (Davidson's), blocked, sectioned, mounted and stained for microscopical examination by a board certified veterinary pathologist. Eyes were sectioned according to the following scheme: A suture had been placed at the 12 o'clock position for orientation at harvest. Typically eyes were trimmed in half in the plane from 12 o'clock to 6 o'clock through the lens and optic nerve along the midline. This captures as many optic structures in one plane as is possible. The trimmed eyes were examined grossly and abnormalities noted. Each half of the globe trimmed was embedded in its own cassette. Cassette A is always the nasal half of the eye, and cassette B is always the temporal half of the eye. For each block 6 hematoxylin and eosin (H&E)-stained slides were prepared that were separated by 1000 microns (1 mm). Each slide contained 2 serial sections of eye on it. All slides were evaluated by a board-certified veterinary pathologist at Charter Preclinical Services. Tissues were scored on a semi-quantitative scale from 0-5 for any abnormalities.
Eyes were scored in several categories for signs of inflammation or other adverse findings. Inflammation scores were as follows:
1—Rare foci of change; minimal
2—Mild diffuse change or more pronounced focal change
3—Moderate diffuse change
5 μL of the 4% Axitinib suspension was then drawn into a 100 μL luer lock Hamilton syringe using a 21G 1.5″ needle. The needle was swapped for a fresh 27G ½″ TW needle (Nipro). The 50 μL suspension was then injected at the 6 o'clock position within the vitreous of a Male New Zealand white rabbit. After 1 month, eyes were explanted and prepared for histology.
as §2, with “(Davidson's fixative solution),” for “(Davidson's),”
Eyes were scored in several categories for signs of inflammation or other adverse findings as described above.
as §1, with “the 8%” for “the 2%”, “TW Nipro needle.” for “TW needle (Nipro).”, “of both eyes in” for “of a”

[4] = statement in words; cited from earlier work

Molecule	Experimental Solubility [1]	also measured
COc1cc2c(Nc3ccc(Br)cc3F)ncnc2cc1OCC1CCN(C)CC1 [Vandetanib (ZD6474), Vandetanib]	8 µg/mL	–
CC(C(=O)O)c1ccc(-c2ccccc2)c(F)c1 (centres unmarked) [Flurbiprofen Sodium]	61 µg/mL	–
CN1CCCC(n2nc(Cc3ccc(Cl)cc3)c3ccccc3c2=O)CC1.O=C(O)c1cc2ccccc2c(Cc2c(O)c(C(=O)O)cc3ccccc23)c1O [Azelastine Embonate]	15 µg/mL	–
CC1(C)O[C@@H]2C[C@H]3[C@@H]4C[C@H](F)C5=CC(=O)C=C[C@]5(C)[C@H]4[C@@H](O)C[C@]3(C)[C@]2(C(=O)CO)O1 [Flunisolide, Anhydrous, USP, Flunisolide]	–	solubility at 68 h [2]: 90 µg/mL (≈ 207 µM)
CCOC(=O)O[C@]1(C(=O)OCCl)CC[C@H]2[C@@H]3CCC4=CC(=O)C=C[C@]4(C)[C@H]3[C@@H](O)C[C@@]21C [Loteprednol etabonate]	5 µg/mL	–
CC(C)(C)NC[C@H](O)COc1nsnc1N1CCOCC1 [Timolol Maleate]	2,800 μg/mL	–
CNC(=O)c1ccccc1Sc1ccc2c(/C=C/c3ccccn3)n[nH]c2c1 [Axitinib]	1 µg/mL	Other adverse findings (retina, sclera, lens, etc.) ([3]; 100 μg): none; Inflammation around the injected material ([3]; 100 μg): 0.04±0.29; Inflammation within the vitreous Chamber ([3]; 100 μg): 0.0±0.0; Other adverse findings (retina, sclera, lens, etc.) ([3]; 200 μg): none; Inflammation around the injected material ([3]; 200 μg): 0.08±0.37; Inflammation within the vitreous Chamber ([3]; 200 μg): 0.14±0.35; Other adverse findings (retina, sclera, lens, etc.) ([3]; 400 ug, both eyes): none; Inflammation around the injected material ([3]; 400 ug, both eyes): 0.14±0.35; Inflammation within the vitreous Chamber ([3]; 400 ug, both eyes): 0.14±0.35
CN1CCC(=C2c3ccccc3CC(=O)c3sccc32)CC1 [Ketotifen base]	15 µg/mL	–
O=C(O)Cc1ccccc1Nc1c(Cl)cccc1Cl [Diclofenac]	600 µg/mL	–
CC1(C)O[C@@H]2C[C@H]3[C@@H]4CCC5=CC(=O)C=C[C@]5(C)[C@@]4(F)[C@@H](O)C[C@]3(C)[C@]2(C(=O)CO)O1 [Triamcinolone Acetonide]	–	solubility at 68 h [2]: 20 µg/mL (≈ 46 µM)
CN1CCC(=C2c3ccccc3CC(=O)c3sccc32)CC1 [Ketotifen fumarate]	10,000 μg/mL	–
CO[C@H]1C[C@@H]2CC[C@@H](C)[C@@](O)(O2)C(=O)C(=O)N2CCCC[C@H]2C(=O)O[C@H]([C@H](C)C[C@@H]2CC[C@@H](O)[C@H](OC)C2)CC(=O)[C@H](C)/C=C(\C)[C@@H](O)[C@@H](OC)C(=O)[C@H](C)C[C@H](C)/C=C/C=C/C=C/1C [Sirolimus]	<100 µg/mL	–
COc1c(N2CCNC(C)C2)c(F)cc2c(=O)c(C(=O)O)cn(C3CC3)c12 (centres unmarked) [Gatifloxacin]	60,000 μg/mL	–
CC(C)OC(=O)CCC/C=C\C[C@@H]1[C@@H](CC[C@@H](O)CCc2ccccc2)[C@H](O)C[C@@H]1O [Latanoprost]	–	solubility in aqueous solutions [4]: relatively low solubility
C=CC[C@@H]1/C=C(\C)C[C@H](C)C[C@H](OC)[C@H]2O[C@@](O)(C(=O)C(=O)N3CCCC[C@H]3C(=O)O[C@H](/C(C)=C/[C@@H]3CC[C@@H](O)[C@H](OC)C3)[C@H](C)[C@@H](O)CC1=O)[C@H](C)C[C@@H]2OC [Tacrolimus]	8 µg/mL	–
C[C@@H]1C[C@H]2[C@@H]3CCC4=CC(=O)C=C[C@]4(C)[C@@]3(Cl)[C@@H](O)C[C@]2(C)[C@@]1(OC(=O)c1ccco1)C(=O)CCl [Mometasone furoate]	20 µg/mL	–
C[C@H]1C[C@H]2[C@@H]3CCC4=CC(=O)C=C[C@]4(C)[C@@]3(F)[C@@H](O)C[C@]2(C)[C@@]1(O)C(=O)COP(=O)([O-])[O-].[Na+].[Na+] [Betamethasone Sodium Phosphate]	67 µg/mL	Max Solubility in PBS, pH 6.3 ([2]; PBS pH 6.3, ambient temperatures, 68 hours, UV detection): > 100,000 μg/mL; Solubility in water, descriptive ([2]; printed beside the Example 10 value): freely soluble
Nc1c(CC(=O)O)cccc1C(=O)c1ccc(Br)cc1 [Bromfenac]	53,000 μg/mL	–
O=c1[nH]c(=O)n([C@H]2C[C@H](O)[C@@H](CO)O2)cc1C(F)(F)F [Trifluridine]	1,500 μg/mL	–
CC(C)OC(=O)CCC/C=C\C[C@@H]1[C@@H](/C=C/[C@@H](O)COc2cccc(C(F)(F)F)c2)[C@H](O)C[C@@H]1O [Travoprost]	44 µg/mL	–
CCCC1O[C@@H]2C[C@H]3[C@@H]4CCC5=CC(=O)C=C[C@]5(C)[C@H]4[C@@H](O)C[C@]3(C)[C@]2(C(=O)CO)O1 (some centres unmarked) [Budesonide]	24 µg/mL	solubility at 68 h [2]: 30 µg/mL (≈ 69.7 µM)
C[C@@H]1C[C@H]2[C@@H]3CCC4=CC(=O)C=C[C@]4(C)[C@@]3(F)[C@@H](O)C[C@]2(C)[C@@]1(O)C(=O)CO [Dexamethasone alcohol]	89 µg/mL	–
CCN(CC)CCNC(=O)c1c(C)[nH]c(/C=C2\C(=O)Nc3ccc(F)cc32)c1C [Sunitinib Malate]	25,000 μg/mL	–
CO[C@H]1C[C@@H]2CC[C@@H](C)[C@@](O)(O2)C(=O)C(=O)N2CCCC[C@H]2C(=O)O[C@H]([C@H](C)C[C@@H]2CC[C@@H](OCCO)[C@H](OC)C2)CC(=O)[C@H](C)/C=C(\C)[C@@H](O)[C@@H](OC)C(=O)[C@H](C)C[C@H](C)/C=C/C=C/C=C/1C [Everolimus]	10 µg/mL	–
CCC(=O)O[C@]1(C(=O)SCF)[C@H](C)C[C@H]2[C@@H]3C[C@H](F)C4=CC(=O)C=C[C@]4(C)[C@@]3(F)[C@@H](O)C[C@@]21C [Fluticasone Propionate]	1 µg/mL	–
Aflibercept	>100,000 μg/mL	–
CN1CCCC(n2nc(Cc3ccc(Cl)cc3)c3ccccc3c2=O)CC1 (centres unmarked) [Azelastine Base]	50 µg/mL	–
CC[C@H]1OC(=O)[C@H](C)[C@@H](O[C@H]2C[C@@](C)(OC)[C@@H](O)[C@H](C)O2)[C@H](C)[C@@H](O[C@@H]2O[C@H](C)C[C@H](N(C)C)[C@H]2O)[C@](C)(O)C[C@@H](C)CN(C)[C@H](C)[C@@H](O)[C@]1(C)O [Azithromycin]	69 µg/mL	–
N[C@@H]1CCCCN(c2c(F)cc3c(=O)c(C(=O)O)cn(C4CC4)c3c2Cl)C1 [Besifloxacin Base]	90 µg/mL	–
